Test [1] has as its system Proteus. In words: Minimum inhibitory concentration required for the antibacterial activity against Proteus. It counts as functional, Proteus sp.
For test [2], the system named is Enterococcus. In words: Minimum inhibitory concentration required for the antibacterial activity against Enterococcus. It counts as functional.
Test [3] has as its system Pseudomonas. In words: Minimum inhibitory concentration required for the antibacterial activity against Pseudomonas relative to Thienamycin (1). It counts as functional.
Test [4] has as its target T1, Dipeptidase 1 (Sus scrofa) (UniProt P22412).
T1 sequence (whole entry): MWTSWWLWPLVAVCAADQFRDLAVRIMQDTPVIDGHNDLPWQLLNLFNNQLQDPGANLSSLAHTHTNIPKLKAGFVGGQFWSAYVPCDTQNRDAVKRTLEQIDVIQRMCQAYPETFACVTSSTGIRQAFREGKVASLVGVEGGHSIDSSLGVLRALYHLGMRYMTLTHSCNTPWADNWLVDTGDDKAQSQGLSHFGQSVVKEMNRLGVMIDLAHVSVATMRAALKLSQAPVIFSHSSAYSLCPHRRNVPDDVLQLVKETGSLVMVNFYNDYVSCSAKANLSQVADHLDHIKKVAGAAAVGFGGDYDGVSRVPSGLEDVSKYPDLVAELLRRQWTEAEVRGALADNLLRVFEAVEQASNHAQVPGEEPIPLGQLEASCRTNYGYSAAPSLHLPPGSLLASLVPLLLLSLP
In words: Susceptibility of compound towards porcine Dehydropeptidase-1 relative to imipenem as […] was calculated.

Test [5] relates to Enterobacter. The test is described as follows: Minimum inhibitory concentration required for the antibacterial activity against Enterobacter. It counts as functional.
In test [6] the test system is Klebsiella. In words: Minimum inhibitory concentration required for the antibacterial activity against Klebsiella. It counts as functional.
Test [7] relates to Staphylococcus aureus. The test is described as follows: Minimum inhibitory concentration required for the antibacterial activity against Staphylococcus aureus. It counts as functional.
Test [8] deals with Escherichia coli. The test is described as follows: Minimum inhibitory concentration required for the antibacterial activity against Escherichia coli. It counts as functional.
Test [9] deals with Serratia. In words: Minimum inhibitory concentration required for the antibacterial activity against Serratia. It counts as functional.
The test system of test [10] is Serratia. The test is described as follows: In vitro antibacterial activity against Serratia relative to thienamycin. It counts as functional.
For test [11], the system named is Klebsiella. In words: In vitro antibacterial activity against Klebsiella relative to thienamycin. It counts as functional.
For test [12], the system named is Proteus. In words: In vitro antibacterial activity against Proteus relative to thienamycin. It counts as functional, Proteus sp.
Test [13] has as its system Staphylococcus aureus. In words: In vitro antibacterial activity against Staphylococcus aureus (4) relative to Thienamycin (1). It counts as functional.
Test [14] deals with Pseudomonas. The test is described as follows: In vitro antibacterial activity against Pseudomonas relative to thienamycin. It counts as functional.
Test [15] concerns Enterococcus. In words: In vitro antibacterial activity against Enterococcus relative to thienamycin. It counts as functional.
Test [16] relates to Escherichia coli. The test is described as follows: In vitro antibacterial activity against Escherichia coli relative to thienamycin. It counts as functional.
Test [17] has as its system Enterobacter. The test is described as follows: In vitro antibacterial activity against Enterobacter relative to thienamycin. It counts as functional.
For test [18], the system named is Proteus. In words: In vitro antibacterial activity against Proteus relative to Thienamycinv. It counts as functional, Proteus sp.
In test [19] the test system is Staphylococcus aureus. The test is described as follows: In vitro antibacterial activity against Staphylococcus aureus relative to thienamycin. It counts as functional.

Converted amounts (≈) assume the structure as drawn.

As to `C[C@@H](O)[C@H]1C(=O)N2C(C(=O)O)=C(SCCN)C[C@H]12` [THIENAMYCIN], the MIC – broadly, the least concentration at which growth counts as inhibited – in the test on Proteus [1] came to 1.9 µg/mL (≈ 6.98 µM); with Enterococcus [2], 3.6 µg/mL (≈ 13.2 µM); in the test on Pseudomonas [3], 1.79 µg/mL (≈ 6.57 µM); with Enterobacter [5], 0.67 µg/mL (≈ 2.46 µM); against Klebsiella [6] it was 0.88 µg/mL (≈ 3.23 µM); against Staphylococcus aureus [7], 0.03 µg/mL (≈ 0.11 µM). In addition, the minimum inhibitory concentration (MIC) in the test on Escherichia coli [8] worked out at 0.37 µg/mL (≈ 1.36 µM); in the test on Serratia [9], 0.93 µg/mL (≈ 3.42 µM). Moreover, the Susceptibility in [4] is 1.
Take `CSc1ccc[n+](Cc2ccc(C3=C(C(=O)[O-])N4C(=O)[C@H]([C@@H](C)O)[C@H]4C3)cc2)c1`: the Relative potency in the test on Serratia [10] is 19.7; in the test with Klebsiella [11], 3.7; with Proteus [12], 9.2; in the test on Staphylococcus aureus [13], 2.6; with Pseudomonas [14], 0.08; in the test on Enterococcus [15], 10.6. For the same compound, the Relative potency in the test with Escherichia coli [16] came out at 4.3; in the test on Enterobacter [17] it was 11.3. Also, the Susceptibility in test [4] was 0.06.
As to `C[C@@H](O)[C@H]1C(=O)N2C(C(=O)O)=C(SCCNC=N)C[C@H]12.O` [IMIPENEM], the Relative potency is 1.8 in the test with Serratia [10]; 1.5 in the test on Klebsiella [11]; 1.6 in the test on Proteus [12]; 1.8 in the test with Staphylococcus aureus [13]; 4 in the test on Pseudomonas [14]; 1.5 in the test on Enterococcus [15]. Further, the Relative potency with Escherichia coli [16] came to 1.6; in the test with Enterobacter [17] it was 1.8. Besides, the Susceptibility in test [4] was 0.85.
Regarding `C[C@@H](O)[C@H]1C(=O)N2C(C(=O)O)=C(c3ccc(CN4CCOCC4)cc3)C[C@H]12`, the Relative potency was 10.6 in the test with Proteus [18]; 8 with Serratia [10]; 0.6 in the test on Staphylococcus aureus [19]; 1.4 with Klebsiella [11]; 0.03 in the test with Pseudomonas [14]; 8.6 in the test with Enterococcus [15]. Moreover, the Relative potency is 3.5 in the test on Escherichia coli [16] and 5.3 in the test with Enterobacter [17]. For the same compound, the Susceptibility in test [4] was 0.13.

The values are drawn from ChEMBL document CHEMBL1151043, “The synthesis and antibacterial activity of 2-para-quarternary ammoniomethylphenyl-carbapenems” (1993).
